Results reported in patent US5399565A, “Pyrazolidinone CCK and gastrin antagonists and pharmaceutical formulations therof” (priority 1993, dated 1995).
pIC50: −log10 of the molar value.

Columns and labels:
[1] = Auditory startle response, nicotine withdrawal; assay type: in vivo, Male Long Evans rats
Description: (§1) In humans, withdrawal from the chronic administration of benzodiazepines or nicotine can result in a variety of undesirable side-effects, including anxiety. […] Withdrawal from chronic nicotine administration also has anxiogenic effects as indicated by decreased time spent in the light compartment of a light/dark box (Costall et al., Ibid) and increased auditory startle responses. Applicants examined the effects of compounds of this invention on the auditory startle response of rats undergoing withdrawal from the chronic administration of diazepam or nicotine.
(§2) Male Long Evans rats (200-220 g; Harlan Sprague Dawley, Columbus, Ind.) were individually housed in a controlled environment on a 12 hour light-dark cycle and were given free access to food (Purina Rodent Chow) and water. All treatment groups contained 8-10 rats.
(§3) Rats were anesthetized with halothane and Alzet osmotic minipumps (Alza Corporation, Palo Alto, Calif., Model 2ML2) were implanted subcutaneously. Diazepam (Sigma Chemical; St. Louis, Mo.) was suspended in 40% polyethylene glycol, 10% ethanol and Tween 80. Nicotine ditartrate was dissolved in physiological saline. Pumps were filled with either diazepam (20 mg/kg/day), nicotine ditartrate (6 mg/kg base/day), or the appropriate vehicle. Twelve days following implantation of pumps, rats were anesthetized with halothane and the pumps were removed.
(§4) The sensory motor reactions [auditory startle response (peak amplitude, Vmax)]of individual rats was recorded using San Diego Instruments startle chambers (San Diego, Calif.). Startle sessions consisted of a 5-minute adaptation period at a background noise level of 70±2 dBA immediately followed by 25 presentations of auditory stimuli (120±3 dBA noise, 50 ms duration) presented at 8-second intervals. Peak startle amplitudes were then averaged for all 25 presentations of stimuli for each session. Auditory startle responding was evaluated daily at 24 hour intervals on days 1-4 following drug withdrawal.
(§5) The compound of Example 141 was administered 60 minutes before startle testing at doses of 0, 10, 30, 60, or 100 mg/kg.

[2] = Auditory startle response, benzodiazepine (diazepam) withdrawal; assay type: in vivo, Male Long Evans rats; conditions: for benzodiazepine withdrawal-induced increase in sensory responsiveness: 60 minutes before startle testing, days 1-4
Description: as §1, §2, §3, §4, §5

brain CCK receptor = target: T1, brain CCK receptor (Mus musculus, UniProt P56481); assay: CCK receptor binding, mouse brain membranes (125I-CCK-8 sulfate)
T1 construct: from tissue; host or cells: forebrain membranes of male CF-1 mice
T1 sequence (P56481 1-453): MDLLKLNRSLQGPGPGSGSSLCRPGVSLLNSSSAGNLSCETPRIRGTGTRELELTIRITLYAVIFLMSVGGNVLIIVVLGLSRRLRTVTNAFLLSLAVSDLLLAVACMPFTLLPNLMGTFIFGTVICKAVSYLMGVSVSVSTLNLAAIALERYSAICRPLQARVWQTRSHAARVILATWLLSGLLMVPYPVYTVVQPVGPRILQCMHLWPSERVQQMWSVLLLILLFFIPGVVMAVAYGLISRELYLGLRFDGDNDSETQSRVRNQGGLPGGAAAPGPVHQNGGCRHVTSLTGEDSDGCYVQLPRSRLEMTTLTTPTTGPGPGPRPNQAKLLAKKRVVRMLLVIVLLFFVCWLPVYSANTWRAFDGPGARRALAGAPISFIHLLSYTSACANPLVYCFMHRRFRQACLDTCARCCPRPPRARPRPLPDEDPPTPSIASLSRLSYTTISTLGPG

Catalepsy bar test = assay type: in vivo, Male Sprague-Dawley rats
Method: Acute administration of classical antipsychotic drugs results in catalepsy. Production of catalepsy is thought to be predictive of Parkinson-like extrapyramidal side effects. Sanberg, et al., Neuroscience 102:748-759 (1988). […] Haloperidol, a classical anti-psychotic, was used as a reference.
Male Sprague-Dawley rats (290-350 g) were used in these studies. Catalepsy was evaluated using the bar test (Sanberg et al., Neurosci., 102,748-759, (1988); Ferre, et al., Pharm. Biochem. Beh., 35, 753-757 (1990). The bar apparatus consisted of a horizontal metal rod with a diameter of 1 cm, which was positioned 10 cm from the floor to the top of the bar. The animal was gently placed in front of the bar, and then its forepaws were lifted to rest on the bar. The length of time, in seconds, until both forepaws touched the floor (3 minutes maximum allowed) was recorded. A baseline measurement was taken prior to injection, and catalepsy was evaluated every 60 minutes for three hours after injection of the compounds (Table IV). In a separate set of experiments, the compounds of this invention were administered 60 minutes prior to the administration of haloperidol, and catalepsy was evaluated every 60 minutes for three hours after the haloperidol injection. Catalepsy scores of drug-treated animals were compared to haloperidol- or vehicle-treated animals at each time point using the analysis of variance (ANOVA) (Table V). Haloperidol (Research Biochemicals Inc.) was dissolved in distilled water and a small amount of 0.1N lactic acid. The compounds of this invention were prepared in 50% ethanol. The volume of all injections was 1 ml/kg.

[3] = 2:1 dmf:h2o
[4] = target: T2, peripheral type CCK receptors in rat pancreas (Rattus norvegicus, UniProt P30551); assay: Binding to peripheral type CCK receptors in rat pancreas (3H-L-364,718); conditions: at 10 μM; read-out: Pancreas Percent Inhibition
T2 construct: Pancreas was obtained from male Sprague-Dawley rats; from tissue; host or cells: pancreas membranes of male Sprague-Dawley rats
T2 sequence (P30551 1-444): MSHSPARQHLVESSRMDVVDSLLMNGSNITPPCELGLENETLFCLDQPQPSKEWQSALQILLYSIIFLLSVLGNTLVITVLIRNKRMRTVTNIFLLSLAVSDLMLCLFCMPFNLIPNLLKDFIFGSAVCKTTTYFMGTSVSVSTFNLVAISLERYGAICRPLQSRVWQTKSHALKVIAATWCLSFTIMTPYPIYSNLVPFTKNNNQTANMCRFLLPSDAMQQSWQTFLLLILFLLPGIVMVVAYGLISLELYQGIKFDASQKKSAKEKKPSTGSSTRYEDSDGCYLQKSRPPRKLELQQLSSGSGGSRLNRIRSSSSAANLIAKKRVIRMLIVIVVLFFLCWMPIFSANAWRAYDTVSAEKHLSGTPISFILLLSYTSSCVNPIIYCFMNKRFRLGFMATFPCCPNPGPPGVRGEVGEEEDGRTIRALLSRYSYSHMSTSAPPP
In short: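 Washed pancreatic membranes from male Sprague-Dawley rats (150-200 g) incubated 1 h at room temperature with 0.4-0.6 nM ³H-L-364,718 in 50 mM Tris pH 7.4, 5 mM MgCl2, bacitracin, 5 mM DTT. Bound radioactivity counted after filtration; nonspecific binding defined with 100 nM L-364,718; IC50 determined.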

[5] = CCK-induced colonic motility in anesthetized ferrets; assay type: in vivo, male ferrets
Method: (§6) Experiments were performed on fasted (18 hour) male ferrets weighing 0.8-1.5 kilograms (Triple F Supplier) and water was given ad lib. Anesthesia was induced with urethane (0.2 ml/100 grams body weight j.p., Sigma Chemical Company), a tracheal tube was inserted to provide a clear airway for spontaneous breathing and the body temperature was maintained at 38° using a homeothermic blanket (Harvard Apparatus). The left jugular vein was cannulated (PE-50, i.d. 0.58 mm, o.d. 0.97 mm) for the subsequent administration of drugs and the left carotid artery was cannulated (PE-90, i.d. 0.86 mm, o.d. 1.277 mm) for the continual measurement of blood pressure and heart rate. Following a laporatomy, a catheter (PE-50) was inserted into the gall bladder through the bile duct and connected via a pressure transducer to a chart recorder for the visual display. The colon was located and a strain gauge transducer was sutured in the circular muscle direction to monitor contractile state. Before each experiment the blood pressure, heart rate and all motility recording transducers were calibrated for subsequent recording of data.
Following a 30 minute stabilization period, cholecystokinin 8-sulfated (CCK8-S) was given at doses of 100, 300 and 700 ng/kg intravenously (iv), with a 10 minute stabilization period in between CCK8-S doses. […]

[6] = CCK-induced gall bladder emptying in anesthetized ferrets; assay type: in vivo, male ferrets
Method: as §6
Following a 30 minute stabilization period, cholecystokinin 8-sulfated (CCK8-S) was given at doses of 100, 300 and 700 ng/kg intravenously (iv), with a 10 minute stabilization period in between CCK8-S doses. The test compound was administered (iv) after another 30 minute stabilization period, and the CCK8-S dose-response curve was repeated five minutes later.
Test compound vehicle was 3 drops of DMSO (99.9%), 0.5 ml 0.1N NaOH, saline.

## CN1CCC[C@H]1c1cccnc1 [nicotine, reference compound]
[1]; 6 mg kg base/day, minipump, twelve days, withdrawal
  auditory startle response after cessation of chronic nicotine: significantly increased auditory startle responses

## CN1C(=O)CN=C(c2ccccc2)c2cc(Cl)ccc21 [diazepam, reference compound]
[2]; 20 mg/kg/day, minipump, twelve days, withdrawal
  auditory startle response after cessation of chronic diazepam: significantly increased auditory startle responses

## O=C1NN(C(=O)Nc2ccc(Br)cc2)[C@@H](c2ccccc2)[C@@H]1c1ccccc1 (single isomer, unassigned) [Example 141, (+)-trans-1-[(4-Bromophenyl)aminocarbonyl]-4,5-diphenyl-3pyrazolidinone]
Brain CCK receptor; mouse brain membranes, read-out: Brain IC50
  pIC50: 7.80
[1]; 10 mg/kg, days 1-4
  nicotine withdrawal-induced increase in startle response: significantly reduced the nicotine withdrawal-induced increase in startle response on all days except day 4
[1]; 30 mg/kg, days 1-4
  nicotine withdrawal-induced increase in sensory responsiveness: significantly reduced the nicotine withdrawal-induced increase in sensory responsiveness on all days examined
[1]; 60 mg/kg, days 1-4
  nicotine withdrawal-induced increase in sensory responsiveness: significantly reduced the nicotine withdrawal-induced increase in sensory responsiveness on all days examined
[2]; 60 mg/kg
  benzodiazepine withdrawal-induced increase in sensory responsiveness: significantly reduced the benzodiazepine withdrawal-induced increase in sensory responsiveness on all days examined
[2]; 100 mg/kg
  benzodiazepine withdrawal-induced increase in sensory responsiveness: significantly reduced the benzodiazepine withdrawal-induced increase in sensory responsiveness on all days examined
Catalepsy bar test; 10 mg/kg, 60 Min
  Catalepsy Score: 3.8 ± 0.9 s
Catalepsy bar test; 10 mg/kg, 120 Min
  Catalepsy Score: 3.3 ± 1.2 s
Catalepsy bar test; 10 mg/kg, 180 Min
  Catalepsy Score: 4.6 ± 2.1 s
Catalepsy bar test; 10 mg/kg, Pre
  Catalepsy Score: 1.1 ± 0.2 s
Catalepsy bar test; 30 mg/kg, 60 Min
  Catalepsy Score: 2.6 ± 1.1 s
Catalepsy bar test; 30 mg/kg, 120 Min
  Catalepsy Score: 2.0 ± 0.6 s
Catalepsy bar test; 30 mg/kg, 180 Min
  Catalepsy Score: 4.9 ± 1.9 s
Catalepsy bar test; 30 mg/kg, Pre
  Catalepsy Score: 1.5 ± 0.3 s

## 1-[(4-Bromophenyl)aminocarbonyl]-2-carboxymethyl-4,5-diphenyl-3-pyrazolidinone and 1-[(4-bromophenyl)aminocarbonyl]-3-carboxymethoxy-4,5-diphenyl-2-pyrazoline [Example 12]
[3]
  titration pKa: 4.8

## O=C1NN(C(=O)Nc2ccccc2)[C@@H](c2ccccc2)[C@@H]1c1ccccc1 (racemic) [Example 15, (±)-trans-1-phenylaminocarbonyl-4,5-diphenyl-3-pyrazolidinone]
Brain CCK receptor; at 10 μM, read-out: Brain Percent Inhibition
  inhibition at 10 µM: 69%
[4]
  inhibition at 10 µM: 10%
[5]; 1 mg/kg iv, CCK 300 ng/kg
  inhibition of CCK-induced colonic motility: 57%
[5]; CCK-8 100 ng/kg
  inhibition of colonic motility: ~75%
[6]; 1 mg/kg iv, CCK 300 ng/kg
  gall bladder emptying: not measurably altered
[6]; CCK-8 100 ng/kg
  alteration of CCK-induced gall bladder emptying: about 10%
[6]; in words
  effect on CCK-induced gall bladder emptying: without affecting CCK-induced gall bladder emptying
